Data reported in ChEMBL document CHEMBL3525899, “Identification of the cytochrome P450 and other enzymes involved in the in vitro oxidative metabolism of a novel antidepressant, Lu AA21004” (Drug Metab Dispos, 2012).

Experiments:
[1] = target: Cytochrome P450 2C9 (Homo sapiens, UniProt P11712); assay: Activity of human recombinant CYP2C9 expressed in microsomes isolated from human AHH-1 cells assessed as enzyme-mediated 4-(2-(2,4-dimethylphenylthio)phenyl)piperazin-1-ol formation at 8 to 50 uM after 120 mins by HPLC/MS-MS analysis in presence of NADPH regenerating system with NADP+; format: ADME, cell-free; settings: 2 h
Sequence of Cytochrome P450 2C9 (P11712 whole entry): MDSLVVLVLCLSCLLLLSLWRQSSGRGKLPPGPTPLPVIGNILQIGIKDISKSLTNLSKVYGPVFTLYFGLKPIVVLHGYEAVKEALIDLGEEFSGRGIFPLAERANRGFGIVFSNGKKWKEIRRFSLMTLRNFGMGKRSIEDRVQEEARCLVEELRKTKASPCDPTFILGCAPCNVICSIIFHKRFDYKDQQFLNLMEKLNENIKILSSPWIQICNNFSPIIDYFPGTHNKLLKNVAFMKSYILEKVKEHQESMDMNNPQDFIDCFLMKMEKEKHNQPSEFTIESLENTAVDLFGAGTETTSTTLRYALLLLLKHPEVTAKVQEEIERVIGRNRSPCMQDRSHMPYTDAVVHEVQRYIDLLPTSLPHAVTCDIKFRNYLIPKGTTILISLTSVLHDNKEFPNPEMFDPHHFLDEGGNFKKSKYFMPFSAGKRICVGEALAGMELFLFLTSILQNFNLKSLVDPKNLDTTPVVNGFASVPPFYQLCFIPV

[2] = target: Cytochrome P450 2E1 (Homo sapiens, UniProt P05181); assay: Activity of human recombinant CYP2E1 expressed in microsomes isolated from human AHH-1 cells assessed as enzyme-mediated 1-(2-(2,4-dimethylphenylsulfinyl)phenyl)piperazine formation at 8 to 50 uM after 120 mins by HPLC/MS-MS analysis in presence of NADPH regenerating system with NADP+; format: ADME, cell-free; settings: 2 h
Sequence of Cytochrome P450 2E1 (P05181 whole entry): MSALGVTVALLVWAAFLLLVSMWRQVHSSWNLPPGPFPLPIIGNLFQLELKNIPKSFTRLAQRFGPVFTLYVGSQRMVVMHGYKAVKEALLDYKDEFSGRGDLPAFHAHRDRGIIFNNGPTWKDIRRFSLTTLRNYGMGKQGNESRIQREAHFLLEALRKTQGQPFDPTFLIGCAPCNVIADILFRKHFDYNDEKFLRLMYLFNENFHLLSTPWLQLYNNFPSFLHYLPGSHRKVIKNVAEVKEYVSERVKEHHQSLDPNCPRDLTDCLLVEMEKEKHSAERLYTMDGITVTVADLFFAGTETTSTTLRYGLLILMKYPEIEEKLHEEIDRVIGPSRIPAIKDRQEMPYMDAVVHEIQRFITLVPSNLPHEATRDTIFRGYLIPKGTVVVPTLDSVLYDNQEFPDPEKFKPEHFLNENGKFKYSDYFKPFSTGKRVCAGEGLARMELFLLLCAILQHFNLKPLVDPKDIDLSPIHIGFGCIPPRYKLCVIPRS

[3] = target: T1, Flavin-containing monooxygenase 3 (Homo sapiens, UniProt P31513); assay: (§1) Activity of human recombinant FMO3 expressed in microsomes isolated from baculovirus infected insect BTI-TN-5B1-4 cells assessed as enzyme-mediated 3-(2,4-dimethylphenylthio)-4-(piperazin-1-yl)phenol formation at 8 to 50 uM after 120 mins by HPLC/MS-MS analysis in presence of NADPH regenerating system with NADP+; format: ADME; settings: 2 h
T1 sequence (P31513 whole entry): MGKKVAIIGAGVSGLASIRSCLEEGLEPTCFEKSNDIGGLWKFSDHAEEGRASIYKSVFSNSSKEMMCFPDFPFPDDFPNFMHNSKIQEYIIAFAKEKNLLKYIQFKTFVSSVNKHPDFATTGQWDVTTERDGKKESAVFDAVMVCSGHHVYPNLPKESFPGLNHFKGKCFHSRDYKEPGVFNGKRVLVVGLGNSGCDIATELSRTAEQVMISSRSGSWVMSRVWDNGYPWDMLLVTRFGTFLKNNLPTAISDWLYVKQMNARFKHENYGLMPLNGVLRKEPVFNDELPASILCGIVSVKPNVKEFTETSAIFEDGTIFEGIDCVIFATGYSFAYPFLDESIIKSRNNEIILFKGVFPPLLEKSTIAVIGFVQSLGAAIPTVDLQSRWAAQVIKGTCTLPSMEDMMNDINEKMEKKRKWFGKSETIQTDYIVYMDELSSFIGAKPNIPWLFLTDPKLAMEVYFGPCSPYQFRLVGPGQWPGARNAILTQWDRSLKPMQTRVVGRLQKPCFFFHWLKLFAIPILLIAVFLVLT

[4] = target: T2, Cytochrome P450 2B6 (Homo sapiens, UniProt P20813); assay: Activity of human recombinant CYP2B6 expressed in microsomes isolated from human AHH-1 cells assessed as enzyme-mediated 4-(2-(2,4-dimethylphenylthio)phenyl)piperazin-1-ol formation at 8 to 50 uM after 120 mins by HPLC/MS-MS analysis in presence of NADPH regenerating system with NADP+; format: ADME, cell-free; settings: 2 h
T2 sequence (P20813 whole entry): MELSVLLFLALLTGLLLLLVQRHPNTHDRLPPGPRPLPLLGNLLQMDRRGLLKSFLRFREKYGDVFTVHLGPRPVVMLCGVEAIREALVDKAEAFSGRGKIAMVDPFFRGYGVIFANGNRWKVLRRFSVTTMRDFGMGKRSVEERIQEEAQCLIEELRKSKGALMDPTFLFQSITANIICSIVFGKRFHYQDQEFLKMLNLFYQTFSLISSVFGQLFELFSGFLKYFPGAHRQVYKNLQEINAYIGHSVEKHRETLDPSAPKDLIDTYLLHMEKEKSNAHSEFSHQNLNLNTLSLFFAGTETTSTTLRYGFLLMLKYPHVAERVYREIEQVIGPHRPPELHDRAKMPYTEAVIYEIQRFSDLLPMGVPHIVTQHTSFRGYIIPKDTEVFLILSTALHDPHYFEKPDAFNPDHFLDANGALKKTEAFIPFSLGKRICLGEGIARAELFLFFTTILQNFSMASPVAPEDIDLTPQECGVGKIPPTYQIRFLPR

[5] = target: T1, Flavin-containing monooxygenase 3; assay: as §1, with “1-(2-(2,4-dimethylphenylsulfinyl)phenyl)piperazine” for “3-(2,4-dimethylphenylthio)-4-(piperazin-1-yl)phenol”; format: ADME; settings: 2 h
[6] = test system: Liver microsome; assay: Drug metabolism in phenotyped human liver microsomes assessed as formation of 3-methyl-4-(2-(piperazin-1-yl)phenylthio)benzoic acid at 8 to 50 uM after 60 mins by HPLC/MS-MS analysis in presence of NADPH regenerating system with NADP+; format: ADME; settings: 1 h
[7] = target: Cytochrome P450 3A4 (Homo sapiens, UniProt P08684); assay: Activity of human recombinant CYP3A4 expressed in microsomes isolated from human AHH-1 cells assessed as enzyme-mediated 3-(2,4-dimethylphenylthio)-4-(piperazin-1-yl)phenol formation at 8 to 50 uM after 120 mins by HPLC/MS-MS analysis in presence of NADPH regenerating system with NADP+; format: ADME, cell-free; settings: 2 h
Sequence of Cytochrome P450 3A4 (P08684 whole entry): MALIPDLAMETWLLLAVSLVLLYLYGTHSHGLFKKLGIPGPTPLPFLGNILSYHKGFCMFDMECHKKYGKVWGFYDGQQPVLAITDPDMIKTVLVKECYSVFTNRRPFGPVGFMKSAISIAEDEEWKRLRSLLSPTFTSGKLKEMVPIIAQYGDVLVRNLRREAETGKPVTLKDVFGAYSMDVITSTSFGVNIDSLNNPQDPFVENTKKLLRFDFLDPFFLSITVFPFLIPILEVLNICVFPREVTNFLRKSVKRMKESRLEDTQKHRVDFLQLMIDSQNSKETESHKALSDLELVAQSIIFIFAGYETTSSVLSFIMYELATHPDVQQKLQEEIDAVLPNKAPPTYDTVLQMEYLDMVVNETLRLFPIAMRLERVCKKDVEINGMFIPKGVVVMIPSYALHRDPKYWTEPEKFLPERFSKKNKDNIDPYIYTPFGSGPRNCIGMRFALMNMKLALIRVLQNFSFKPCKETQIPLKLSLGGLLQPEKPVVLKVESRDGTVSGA

[8] = test system: Liver microsome; assay: Drug metabolism in phenotyped human liver microsomes assessed as formation of (3-methyl-4-(2-(piperazin-1-yl)phenylthio)phenyl)methanol at 8 to 50 uM after 60 mins by HPLC/MS-MS analysis in presence of NADPH regenerating system with NADP+; format: ADME; settings: 1 h
[9] = target: Cytochrome P450 2D6 (Homo sapiens, UniProt P10635); assay: Activity of human recombinant CYP2D6 expressed in microsomes isolated from human AHH-1 cells assessed as enzyme-mediated 3-methyl-4-(2-(piperazin-1-yl)phenylthio)benzoic acid formation at 8 to 50 uM after 120 mins by HPLC/MS-MS analysis in presence of NADPH regenerating system with NADP+; format: ADME, cell-free; settings: 2 h
Sequence of Cytochrome P450 2D6 (P10635 whole entry): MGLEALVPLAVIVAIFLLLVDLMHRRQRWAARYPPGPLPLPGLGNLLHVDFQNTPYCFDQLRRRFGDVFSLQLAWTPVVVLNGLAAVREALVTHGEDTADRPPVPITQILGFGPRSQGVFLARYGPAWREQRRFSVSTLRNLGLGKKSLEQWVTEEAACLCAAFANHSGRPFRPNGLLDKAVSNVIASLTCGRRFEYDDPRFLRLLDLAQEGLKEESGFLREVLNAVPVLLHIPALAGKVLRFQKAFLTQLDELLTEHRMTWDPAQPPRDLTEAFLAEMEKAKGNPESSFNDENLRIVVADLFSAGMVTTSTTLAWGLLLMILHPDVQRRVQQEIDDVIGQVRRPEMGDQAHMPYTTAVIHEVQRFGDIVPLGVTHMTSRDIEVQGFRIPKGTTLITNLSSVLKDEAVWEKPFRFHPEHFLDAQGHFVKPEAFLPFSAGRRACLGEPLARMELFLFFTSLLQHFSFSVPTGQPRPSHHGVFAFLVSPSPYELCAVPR

[10] = target: Cytochrome P450 2C19 (Homo sapiens, UniProt P33261); assay: Activity of human recombinant CYP2C19 expressed in microsomes isolated from human AHH-1 cells assessed as enzyme-mediated 3-(2,4-dimethylphenylthio)-4-(piperazin-1-yl)phenol formation at 8 to 50 uM after 120 mins by HPLC/MS-MS analysis in presence of NADPH regenerating system with NADP+; format: ADME, cell-free; settings: 2 h
Sequence of Cytochrome P450 2C19 (P33261 whole entry): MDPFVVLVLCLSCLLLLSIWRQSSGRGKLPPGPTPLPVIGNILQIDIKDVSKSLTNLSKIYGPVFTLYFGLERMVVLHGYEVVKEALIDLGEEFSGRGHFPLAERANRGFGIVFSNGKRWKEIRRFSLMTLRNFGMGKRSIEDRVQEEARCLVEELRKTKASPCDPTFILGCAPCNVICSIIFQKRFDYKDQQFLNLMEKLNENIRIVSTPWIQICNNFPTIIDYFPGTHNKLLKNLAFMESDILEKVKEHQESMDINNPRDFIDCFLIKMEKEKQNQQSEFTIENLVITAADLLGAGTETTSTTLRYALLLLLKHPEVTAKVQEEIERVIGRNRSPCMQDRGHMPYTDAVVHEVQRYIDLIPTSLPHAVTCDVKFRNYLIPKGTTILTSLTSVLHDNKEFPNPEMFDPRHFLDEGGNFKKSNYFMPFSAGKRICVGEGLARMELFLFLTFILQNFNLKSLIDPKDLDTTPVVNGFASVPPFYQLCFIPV

[11] = target: T2, Cytochrome P450 2B6; assay: Activity of human recombinant CYP2B6 expressed in microsomes isolated from human AHH-1 cells assessed as enzyme-mediated 3-(2,4-dimethylphenylthio)-4-(piperazin-1-yl)phenol formation at 8 to 50 uM after 120 mins by HPLC/MS-MS analysis in presence of NADPH regenerating system with NADP+; format: ADME, cell-free; settings: 2 h
[12] = target: T1, Flavin-containing monooxygenase 3; assay: as §1, with “4-(2-(2,4-dimethylphenylthio)phenyl)piperazin-1-ol” for “3-(2,4-dimethylphenylthio)-4-(piperazin-1-yl)phenol”; format: ADME; settings: 2 h
[13] = test system: Liver microsome; assay: Drug metabolism in pooled human liver microsomes assessed as formation of 1-(2-(2,4-dimethylphenylsulfinyl)phenyl)piperazine after 30 mins by Michaelis-Menten plot analysis in presence of NADPH regenerating system with NADP+; format: ADME; settings: 0.5 h, read-out: Km(app)

Br.Cc1ccc(Sc2ccccc2N2CCNCC2)c(C)c1 [VORTIOXETINE HYDROBROMIDE]
metabolite_detected: Drug metabolism [1] | Drug metabolism [4] | Drug metabolism [6] | Drug metabolism [8] | Drug metabolism [9] | Drug metabolism [10]
metabolite_not_detected: Drug metabolism [2] | Drug metabolism [3] | Drug metabolism [5] | Drug metabolism [7] | Drug metabolism [11] | Drug metabolism [12]
≥ 208 µM: Km [13]
